Data as given in patent US9796671B2, “Aurora kinase inhibitors” (REGENTS OF THE UNIVERSITY OF MINNESOTA, priority 2012, dated 2017).

These molecules were tested on HCT116 cells (assay: Anchorage-independent growth (soft agar colony formation)). Conditions: 0.5 μM.
Format: cell-based
Description: FIGS. 3A and 3B. Compounds 1-8 suppress the anchorage-independent growth of HCT116 cells. The asterisk indicates a significant (* p<0.05, ** p<0.01) decrease in colony formation in cells treated with each compound compared with the DMSO treated control group. Two concentrations of each compound, 0.5 μM and 5 μM were tested. […] Compounds 2 and 4 had no effect.
Tumor cells are suspended in basal medium Eagle (BME) medium and added to 0.6% agar, with different concentrations of Compound 1 in a base layer and a top layer of 0.3% agar. The cultures are maintained at 37° C. in a 5% CO2 incubator for 1 to 2 weeks and then colonies are counted under a microscope using the Image-Pro Plus software (v.4) program (Media Cybernetics, Silver Spring, Md.).
`COc1cc(/C=C/C(=O)/C=C2/C(=O)Nc3ccccc32)ccc1O` [Compound 8] was tested, and the “anchorage-independent growth of HCT116 cells (colony formation)” value (from here on “anchorage-independent growth”) was “best efficiency”. For `O=C(/C=C/c1ccc2c(c1)OCO2)/C=C1/C(=O)Nc2cccc(Cl)c21` [Compound 4], the “anchorage-independent growth” value was “no effect”. In the case of `O=C(/C=C/c1ccc2c(c1)OCO2)/C=C1/C(=O)Nc2ccc(F)cc21` [Compound 6], the “anchorage-independent growth” value is reported as “best efficiency”. `O=C(/C=C/c1ccc2c(c1)OCO2)/C=C1/C(=O)Nc2ccc(Cl)cc21` [Compound 2] was tested, and the “anchorage-independent growth” value was “no effect”. With `COc1cc(/C=C/C(=O)/C=C2/C(=O)Nc3ccccc32)cc(OC)c1OC` [Compound 5] the “anchorage-independent growth” value was “best efficiency”.
